Tests used:
[1] = Antiradical activity, quinoid oxidation (autoxidation) of adrenaline; details: adrenaline autoxidation in alkaline buffer, compound initial 25 µM
[2] = DPPH radical scavenging activity; details: compound solution 0.2 mM in MeOH, DPPH 0.1 mM, 40 min, 20 °C
Excerpt: The redox activity of organosulfur compounds 1–6 can be assessed by the ability to interact with the stable radical 2,2-diphenyl-1-picrylhydrazyl (DPPH). The delocalization of the radical in the aromatic rings of DPPH ensures its high stability. Therefore, this method is widely used to determine the radical scavenging activity of compounds. It is known that there are two main mechanisms by which antioxidant molecules can deactivate free radicals: hydrogen atom transfer (HAT) and single electron transfer (SET). One of them may dominate depending on the conditions, the structure of the antioxidant and the type of analysis, but both will produce identical final products, despite the difference in mechanisms.
The free radical scavenging activity was evaluated using the stable radical 2,2-diphenyl-1-picrylhydrazyl (DPPH), according to the method described by Brand-Williams with a slight modification. Solutions of compounds in MeOH were studied at a concentration of 0.2 mM. The stock DPPH solution contained 0.2 mM of radical in MeOH. An amount of 0.1 mL of the test compound solution was added to 0.1 mL of DPPH solution (0.2 mM) in each cell so that the initial DPPH concentration in cells was 0.1 mM. The microplate was placed in a spectrophotometer and the decrease in the absorbance values of DPPH solution for 40 min at 20 °C was measured at λmax = 517 nm. The results were expressed as scavenging activity, calculated as follows: scavenging activity, % = [(A0 − A1)/A0] × 100, where A0 is the optical density of the control solution DPPH, and A1 is the optical density of the reaction mixture solution.

[3] = LOOH accumulation in non-enzymatic peroxide oxidation of oleic acid; details: 65 °C; for LOOH, k0/k1 (relative rate constant of LOOH formation): 1 mmol/L additive, 3 h
Method: The total antioxidant activity of compounds 1–6 during the oxidation of oleic acid with atmospheric oxygen at 65 °C for 3 h was determined by standard methods according to the level of accumulation of the main metabolites. Hydroperoxides as primary products (LOOH) and secondary LPO carbonyl products formed colored complexes with thiobarbituric acid (TBARS).
The kinetics of LOOH and TBARS formation was similar in the control test and in the presence of the studied compounds. The exponential kinetic curves of LOOH accumulation in oleic acid corresponded to the equation CLOOH = a × e^kt with correlation coefficients close to 1. It indicated a pseudo-first order of reaction in the substrate, inherent in a radical process with degenerate chain branching (Figure 2). The kinetic curves of secondary carbonyl products were linear and corresponded to the equation CTBARS = kt + b, with correlation coefficients close to 1 (Figure 3).
The determination of oleic acid oxidation level was performed by the kinetic measurement of the total concentration of the corresponding isomeric LOOH using iodometric titration. The oxidation of constant volume of the acid (15 mL) was carried out in a thermostatic cell using an air flow at 65 °C during 3 h. The oxidation proceeded in the conditions, the oxidation rate was independent of the air volume passing through the cell.
The concentrations of the additives were 1 mM compared with the initial concentration of LOOH in the reaction mixture. Oleic acid (1 mL), CHCl3 (12 mL), glacial AcOH (18 mL), and freshly prepared cold-saturated KI solution (1 mL) were placed in a flask and shaken for 2 min. Then distilled water (100 mL) and a 1% starch solution (1 mL) were added and the resulting mixture was immediately titrated with Na2S2O3 solution (0.01 N). Iodine released in an amount equivalent to that of LOOH was titrated with a standard thiosulfate solution. At the same time, a control test for reagents was carried out: all the reagents except for oleic acid were added to the flask. The LOOH concentration was calculated according to the following formula:
[LOOH] = [(Vs − Vc) × 0.001269 × K × 100]/m, where vs. is the volume of 0.01 N Na2S2O3 solution, consumed during the titration of working sample, mL; Vc is the volume of 0.01 N Na2S2O3 solution, consumed during the titration of control, mL; K is the conversion factor to exactly 0.01 N Na2S2O3 solution; m is the mass of studied oleic acid; and 0.001269 is the amount of I2 expressed in g, equivalent to 1 mL of 0.01 N Na2S2O3 solution. The [LOOH, mmol/L] content equal to 1% corresponded to 78.7 mM of active O2 per 1 L of lipids.

SOD = test: SOD-protective activity, cytosolic fraction of liver homogenate; format: biochemical, Russian sturgeon; details: adrenaline oxidation with biopreparation, compound initial 25 µM
Excerpt: Superoxide dismutase (SOD) is present in almost all aerobic cells and extracellular fluids and is able to inhibit the accumulation of adrenochrome by intercepting O2^–•. The process of splitting O2^–• by SOD into O2 and H2O2 occurs in the body, which is facilitated by the presence of metal ions Cu, Zn, Mn and Fe, playing an important role in lipid peroxidation. […] This system is also suitable for determining the activity of the endogenous enzyme–antioxidant SOD responsible for the utilization of O2^–• [43, 44]. The reaction sequence of adrenaline autoxidation with the adrenochrome formation was described earlier.
SOD-protective activity of the biopreparation was the ability to utilize the superoxide anion radical O2^–•, as determined by the method of Sirota. A cytosolic fraction of the Russian sturgeon liver homogenate was used as the source of SOD. First, the sturgeon liver was washed with cold 0.2 M Tris (tris (hydroxymethyl) aminomethane) buffer (pH 7.8) to remove any traces of blood. All of the procedures were performed at a temperature of 0–4 °C. Next, a homogenate was obtained using a Potter homogenizer (Thomas Scientifc, Swedesboro, NJ, USA) in 0.2 M Tris buffer at a ratio of 1:10. The homogenate was then centrifuged for 10 min at 1000× g to remove partially destroyed cells and nuclei. The resulting supernatant contained the enzymes of the cytosolic fraction of the liver homogenate, including the SOD. Here, 10 µL of the biopreparation was added to a cuvette with 200 µL of bicarbonate buffer (pH 10.65), 10 µL of the tested compound (initial concentrations of these compounds 25 µM) and 10 µL of 0.1% adrenaline solution and was thoroughly and quickly mixed. The rate of adrenaline oxidation without and in the presence of the biopreparation was evaluated by the change in optical density, measured at 347 nm for 3 min. The decrease in the rate of the process in the presence of the biopreparation was used to characterize the SOD-protective activity.

Structure (SMILES)	Antiradical Activity, % Inhibition [1]	DPPH, % (scavenging activity) [2]	LOOH, k0/k1 (relative rate constant of LOOH formation) [3]	LOOH accumulation, % of inhibition ([3]; after 3 h incubation of oleic acid)	SOD Activity of Liver Sturgeon, % Inhibition (SOD)
c1ccc(SSSc2ccccc2)cc1 [Compound 1, diphenyl trisulfide]	30 ± 1.9%	non active	0.78 ± 0.15	22.5%	41 ± 2.7%
CC(C)(C)c1cc(SSc2cc(C(C)(C)C)c(O)c(C(C)(C)C)c2)cc(C(C)(C)C)c1O [Compound 6, bis(3,5-di-tert-butyl-4-hydroxyphenyl) disulfide]		81.56 ± 0.07%			
c1ccc(SSc2ccccc2)cc1 [Compound 5, diphenyl disulfide]		non active			
COc1ccc(SSc2ccc(OC)c(OC)c2)cc1OC [Compound 3, bis(3,4-dimethoxyphenyl) disulfide]		non active			
COc1ccccc1SSc1ccccc1OC [Compound 2, bis(2-methoxyphenyl) disulfide]	50 ± 3.1%	non active	0.86 ± 0.11		60 ± 3.3%
Oc1ccc(SSc2ccc(O)cc2)cc1 [Compound 4, 4,4′-dihydroxydiphenyl disulfide]	36 ± 2.3%	13.42 ± 0.02%	0.61 ± 0.03		75 ± 5.6%
